Data set [1] can be described thus: Solubility of photochromic compound in polymerizable compounds. In kind it is physicochemical. On the set-up: key: 1: No haze is seen when checked under transmission of light, and the sample is completely dissolved.; 2: A very thin haze is seen to the extent that it can be seen under transmission of light.; 3: A thin haze that can be seen under transmission of light is seen.; 4: A haze can be seen even without transmission of light. The conditions noted are these: 35 µmol/g in radical polymerizable compound composition of Example 21, 65 to 70°C; for Dissolution for 15 min / Dissolution for 30 min / Dissolution for 45 min: stirring and ultrasonic irradiation; for Dissolution for 1 hour: head reads 60 min in Tables 8 to 14. An outline of the steps:
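Photochromic compound was added to the radical polymerizable portion of a curable composition and dissolved at 65 to 70°C under stirring and intermittent ultrasonication. The sample was inspected visually by transmitted light every 15 minutes up to 1 h and scored 1 (fully dissolved, no haze) to 4 (haze visible without transmitted light). Solubility was ranked by the time taken to reach score 1.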

Data set [2] in a line: Photochromic property of photochromic laminate made by coating method. It is filed as physicochemical. The conditions noted are these: for Residual ratio / Color developing density at 23°C: laminate by coating method; for Residual ratio: A96/A0 x 100 after 96 hours accelerated degradation, xenon weather meter X25; for Color developing density at 23°C: absorbance difference after 240 seconds irradiation at the maximum absorption wavelength of the same line. Put shortly: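 Compound at 0.25 mmol per 100 g methacrylate monomer mix, spin-coated 40 µm on a primed thiourethane lens, photocured 90 s under N2, then 110°C for 1 h. λmax and A23 measured after 240 s irradiation at 23°C; τ1/2 is time to half-fade after irradiation stops. Residual ratio A96/A0 after 96 h xenon weathering.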

Values joined by “and” are separate entries in the source; they are usually repeats but may differ in a detail not shown here. Equal entries are not always repeated.

As to `CCCCC1(CCC)c2ccccc2-c2c1c1c(c3cc(OC)c(N4CCOCC4)cc23)OC(c2ccc(OC)cc2)(c2ccc(OC)cc2)C=C1` (stereo not drawn) [Formula (6-2)], in data set [1], the “Dissolution for 15 min” value stood at 4, the “Dissolution for 30 min” value worked out at 2, the “Dissolution for 45 min” value is recorded as 1 and the “Dissolution for 1 hour” value is listed as 1. Moreover, in data set [2], the “Color fading half-life at 23°C” value came out at 2 min; the Residual ratio was 55% and 58%.

Turning to `COc1ccc(C2(c3ccc(OC)cc3)C=Cc3c4c(c5cc(N6CCOCC6)c(OC)cc5c3O2)-c2ccccc2C4(C)C)cc1` [Formula (A), reference compound], in data set [1], the “Dissolution for 15 min” value worked out at 4, the “Dissolution for 30 min” value is recorded as 3, the “Dissolution for 45 min” value was determined as 3 and the “Dissolution for 1 hour” value was 3. In data set [2], the Residual ratio was 47% and 50%; the “Color developing density at 23°C” value was 1.65 - and 0.83 -.

Take `CCC1(OC)c2ccccc2-c2c1c1c(c3cc(OC)c(N4CCOCC4)cc23)OC(c2ccc(OC)cc2)(c2ccc(OC)cc2)C=C1` (stereo not drawn) [Formula (B), reference compound]: in data set [1], the “Dissolution for 15 min” value was 4, the “Dissolution for 30 min” value is reported as 3, the “Dissolution for 45 min” value was 1 and the “Dissolution for 1 hour” value worked out at 1. Moreover, in data set [2], the “Color fading half-life at 23°C” value turned out to be 0.967 min; the Residual ratio is 37% and 41%; the “Color developing density at 23°C” value is 1.29 - and 0.70 -.

`CCC1(C)c2ccccc2-c2c1c1c(c3cc(OC)c(N(C)c4ccccc4)cc23)OC(c2ccc(OC)cc2)(c2ccc(OC)cc2)C=C1` (stereo not drawn) [Formula (9-1)]: in data set [1], the “Dissolution for 15 min” value came to 4, the “Dissolution for 30 min” value came to 2, the “Dissolution for 45 min” value turned out to be 2 and the “Dissolution for 1 hour” value is on record as 1. In data set [2], the “Color fading half-life at 23°C” value was 1.32 min, the Residual ratio was 71% and the “Color developing density at 23°C” value is reported as 1.16 -.

Regarding `CCCCCCC1(CC)c2ccccc2-c2c1c1c(c3cc(OC)c(N4CCOCC4)cc23)OC(c2ccc(OC)cc2)(c2ccc(OC)cc2)C=C1` (stereo not drawn) [Formula (18-1)], in data set [1], the “Dissolution for 15 min” value came to 3, the “Dissolution for 30 min” value is reported as 2, the “Dissolution for 45 min” value amounted to 1 and the “Dissolution for 1 hour” value worked out at 1. The Residual ratio in data set [2] was 53% and 55%.

On to `CCCCCCCCCCCC1(C)c2ccccc2-c2c1c1c(c3cc(OC)c(N4CCOCC4)cc23)OC(c2ccc(OC)cc2)(c2ccc(OC)cc2)C=C1` (stereo not drawn) [Formula (19-1)], for which, in data set [1], the “Dissolution for 15 min” value was found to be 2, the “Dissolution for 30 min” value is on record as 1, the “Dissolution for 45 min” value turned out to be 1 and the “Dissolution for 1 hour” value is reported as 1. Also, in data set [2], the Residual ratio is 47% and 51%.

Consider `CCCC1(CC)c2ccccc2-c2c1c1c(c3cc(OC)c(N4CCOCC4)cc23)OC(c2ccc(OC)cc2)(c2ccc(OC)cc2)C=C1` (stereo not drawn) [Formula (14-1)], for which, in data set [1], the “Dissolution for 15 min” value is 4, the “Dissolution for 30 min” value turned out to be 2, the “Dissolution for 45 min” value came out at 1 and the “Dissolution for 1 hour” value is on record as 1. In data set [2], the “Color fading half-life at 23°C” value is 1.83 min; the Residual ratio was 55% and 57%.
